Data on eleven compounds can be found in patent publication US20240209423A1, “METHODS AND COMPOSITIONS FOR REDUCING AUTOFLUORESCENCE” (Advanced Cell Diagnostics, Inc., priority 2021, published 2024).

The test system of data set [1] is tissue autofluorescence in FFPE mouse multi-tissue arrays. The data set can be described thus: Quinone compounds tested for tissue autofluorescence quenching, FFPE mouse multi-tissue arrays. The conditions noted are these: incubated for 30 min; compared with 4×SSC untreated control slide. As to the method: Multiple quinone compounds were tested for tissue autofluorescence quenching effects on FFPE mouse multi-tissue arrays. After bake, deparaffinization, and pretreatment to permeabilize the tissue, 4×SSC or quinone derivative was applied to the tissue and incubated for 30 min. After washing DAPI was applied to stain the nucleus. Slides were then mounted with prolong gold and scanned using the same microscopic settings. A reduction in autofluorescence was determined by comparing the fluorescence on the quinone derivative treated slide with a 4×SSC untreated control slide.

For data set [2], the system named is autofluorescence in human FFPE lung cancer tissue. The data set can be described thus: RNAscope HiPlex assay with p-benzoquinone treatment, human FFPE lung cancer tissue. The conditions noted are these: 100 mM in 4×SSC, vs 4×SSC alone. The protocol: (§1) RNAscope® HiPlex assays were conducted to detect four positive control genes in mouse FFPE kidney tissue. ZZ probes for 12 different targets were hybridized together to a mouse multi-tissue array prepared as formalin-fixed paraffin embedded sections, and the hybridization signals were amplified together by successive rounds of hybridization with the preamplifier and amplifier sequences. Autofluorescence quenching was performed by application of p-benzoquinone (100 mM in 4× Saline-Sodium Citrate (SSC)) onto the slides for 30 minutes at room temperature, followed by detection of four (Ppib, Ubc, Polr2a and Hprt1) of the 12 target genes using fluorescent label probes corresponding to the signal amplification systems assigned to these four target probes and the fluorophores Alexa 488, DyLight 550, DyLight 650 and Alexa 750 respectively (bottom panels). On a separate slide, 4×SSC buffer alone was used as the untreated control. Nuclei were stained with DAPI.

Data set [3] deals with human head and neck FFPE tissue. The data set can be described thus: CD20 immunofluorescence after p-benzoquinone treatment, human head and neck FFPE tissue. The conditions noted are these: 40 mM in 4×SSC, 30 min, CD20, Opal 520.
Experimental: CD20 was detected in human head and neck FFPE tissue. After bake, deparaffmization, and pretreatment to permeabilize the tissue, 4×SSC (untreated control) or p-benzoquinone (pBQ) (40 mM in 4×SSC) was applied onto the tissue and incubated for 30 min. After washing, mouse anti-CD20 primary antibody (Leica Ready to Use) was applied for 1 hour at room temperature (RT). Signal was amplified by rabbit anti-mouse post primary antibody (Leica Ready to Use) and goat anti-rabbit Alexa 488 secondary antibody (Leica Ready to Use) conjugated to HRP. Signal was detected using Opal 520 (Akoya Bio) diluted 1:500 in TSA buffer. The images were taken with the same exposure settings.
Data set [4] relates to autofluorescence in mouse FFPE kidney tissue. The experiment in a line: RNAscope HiPlex assay with p-benzoquinone autofluorescence quenching, mouse FFPE kidney tissue. The conditions noted are these: 100 mM in 4× SSC, 30 minutes at room temperature, vs 4×SSC control. The protocol: as §1
The subject of data set [5] is FFPE human tumor microarray. The experiment in a line: Quinone treatment condition optimization, RNAscope HiPlex, FFPE human tumor microarray. On the set-up: key to the marks not given beside the values. The conditions noted are these: 100 mM, 30 min, Polr2a, PPIB, UBC, Hprt1. The protocol: Major factors tested for p-benzoquinone were chemical concentration, incubation time, and fluorescent dyes.

Data set [6] concerns autofluorescence in non-human primate fixed frozen liver tissue. The data set can be described thus: RNAscope HiPlex assay with p-benzoquinone treatment, non-human primate fixed frozen liver tissue. As to conditions: 100 mM in 4×SSC, vs 4×SSC alone.
Data set [7] relates to autofluorescence in FFPE Human Brain Tissues. The experiment in a line: Quenching of endogenous and lipofuscin autofluorescence, unstained FFPE human brain tissues. The conditions noted are these: 100 mM in 4×SSC. As to the method:
The present methods are effective at partially reducing autofluorescence caused by lipofuscin pigment granules that are most commonly found in brain tissues. FFPE Human Brain Tissues were treated with or without pBQ and imaged without staining to reveal tissue endogenous autofluorescence.

The nature of data set [8]: Maximum solubility in 4×SSC. The class given is physicochemical. As to conditions: 4×SSC buffer, aqueous buffer.
Data set [9] has as its system mouse fresh frozen tissue. The experiment in a line: RNAscope HiPlex assay with p-benzoquinone treatment, mouse fresh frozen tissue. The conditions noted are these: 100 mM in 4×SSC. The protocol: as §1
Yet another similar experiment was conducted using mouse fresh frozen tissue, with detection of four of the twelve targets (Polr2a, Ppib, Ubc, and Hprt1).

The next data set has as its system FFPE mouse brain. The data set can be described thus: Antibody compatibility with pBQ treatment (immunofluorescence), FFPE mouse brain. As to conditions: NeuN, Chicken anti NeuN 1:500, Goat anti-chicken AF555 1:500. The protocol:
(§2) CD20 was detected in human head and neck FFPE tissue. After bake, deparaffmization, and pretreatment to permeabilize the tissue, 4×SSC (untreated control) or p-benzoquinone (pBQ) (40 mM in 4×SSC) was applied onto the tissue and incubated for 30 min. After washing, mouse anti-CD20 primary antibody (Leica Ready to Use) was applied for 1 hour at room temperature (RT). Signal was amplified by rabbit anti-mouse post primary antibody (Leica Ready to Use) and goat anti-rabbit […] secondary antibody (Leica Ready to Use) conjugated to HRP. Signal was detected using Opal 520 (Akoya Bio) diluted 1:500 in TSA buffer. The images were taken with the same exposure settings. The brightness of the pBQ treated slide was increased by two-fold to achieve optimal display.
(§3) Additional antibodies were tested for compatibility with p-benzoquinone treatment, using the same general experimental method as described above.

Another data set concerns mouse FFPE liver tissue. The experiment in a line: Dye compatibility with p-benzoquinone treatment, RNAscope, mouse FFPE liver tissue. The conditions noted are these: p-benzoquinone applied after Amp 3. An excerpt:
To evaluate the compatibility of certain dyes, targets were detected in mouse FFPE liver tissue, using the p-benzoquinone treatment step. […] Experimentally, these targets were detected using RNAscope® double Z probes and signals were amplified using an RNAscope® amplification system (Amp 1, 2, 3), with p-benzoquinone applied after Amp 3.

The next data set relates to hTMAc. The data set can be described thus: Antibody compatibility with pBQ treatment (immunofluorescence), hTMAc. As to conditions: CD3, Leica mouse anti-CD3 1:200, Goat anti-rabbit AF488 1:500. The protocol:
as §2, §3

Data set [10] has as its system FFPE mouse multi tissue array. The experiment in a line: Quinone treatment condition optimization, RNAscope HiPlex, FFPE mouse multi tissue array.

≈ marks a conversion by molar mass, not a printed value.

As for `COC1=CC(=O)C=C(OC)C1=O` [2,6-Dimethoxy-1,4-benzoquinone], the Autofluorescence quenching effect entry in data set [1] is on record as “No”.

As for `CC1=CC(=O)C=CC1=O` [Methyl-p-benzoquinone], in data set [1], the Autofluorescence quenching effect result was “No”.

As for `COC1=CC(=O)C(OC)=CC1=O` [2,5-Dimethoxy-(1,4)-benzoquinone], the Autofluorescence quenching effect entry in data set [1] is “No”.

For `O=C1C=CC(=O)C(Cl)=C1` [2-Chloro-1,4-benzoquinone], in [1], the Autofluorescence quenching effect entry was “Yes”.

For the compound `CC1=CC(=O)C=C(C)C1=O` [2,6-Dimethylbenzoquinone], the Autofluorescence quenching effect entry in data set [1] is reported as “No”.

`COC1=CC(=O)C=CC1=O` [2-methoxybenzo-1,4-quinone]: the Autofluorescence quenching effect entry in [1] is given as “Yes”.

For the compound `O=C1C=CC(=O)C=C1` [p-benzoquinone], the “effect on tissue autofluorescence” value in data set [2] is given as “reduced autofluorescence”; in [4], “effectively reduced autofluorescence”; in data set [6], “reduced autofluorescence”. In data set [3], the “compatibility of autofluorescence quenching treatment with immunofluorescence” value was “compatible with immunofluorescence assays”. Moreover, the Signal/noise ratio result is given as “+++” in data set [5]; “+++” in data set [10] (2 mM, overnight, Polr2a, PPIB, UBC, Hprt1); “−−+” in data set [10] (20 mM, 30 min); “+++” in data set [10] (100 mM, 30 min); “+++” in data set [10] (200 mM, 30 min); “+++” in data set [10] (Fluorescent dyes: Alexa dyes). The Signal/noise ratio result in data set [10] (Fluorescent dyes: Dylight dyes) is recorded as “+++”. Further, the “effect on lipofuscin autofluorescence (dot-like and clusters of fluorescence)” value in data set [7] was “partially quenches lipofuscin autofluorescence”; in [7] (listed as p-Benzoquinone) it was “reduced but not completely eliminated”. The “effect on fixation induced haze background” value in data set [7] (vs no pBQ control) is listed as “greatly reduced”. The compound further registered a solubility in data set [8] of 100 mM (≈ 10.8 mg/mL). The “compatibility with RNA in situ hybridization assay” value in data set [9] is on record as “compatible”. The “IF Signal compared to control” value in the data set on FFPE mouse brain and in the data set with hTMAc was “Weaker” each time. Besides, the “target detection with ATTO dye label probes after p-benzoquinone treatment” value with mouse FFPE liver tissue (ATTO 550 (UBC), ATTO 647N (POLR2A)) is “did not lead to successful detection”. Besides, the “target detection with Dylight label probes after p-benzoquinone treatment” value in the data set on mouse FFPE liver tissue (Dylight 550 (UBC), Dylight 650 (POLR2A)) is on record as “successfully detected”. Further, the Autofluorescence quenching effect entry in [1] is “Yes”.

Turning to `O.O=C1C(O)=C(O)C(=O)C(O)=C1O` [Tetrahydroxy-1,4-quinone hydrate], in [1], the Autofluorescence quenching effect entry is reported as “No”.

As to `Oc1ccc(O)cc1` [Hydroquinone], in data set [1], the Autofluorescence quenching effect result is given as “Yes”. In addition, the Signal/noise ratio result is “−−+” in data set [10] (20 mM, 4 d, with light exposure); “−−+” in [10] (20 mM, 6 d, with light exposure); “−−+” in data set [10] (200 mM, 2 d, with light exposure); “−++” in [10] (200 mM, 4 d, with light exposure); “−++” in [10] (200 mM, 5 d, with light exposure); “−++” in data set [10] (200 mM, 6 d, with light exposure). The Signal/noise ratio entry is listed as “−−+” in data set [10] (Buffer 2x SSC (20 mM, 4 d, with light exposure)); “−−+” in data set [10] (Buffer 4x SSC (20 mM, 4 d, with light exposure)); “−−+” in data set [10] (Buffer Decal (20 mM, 4 d, with light exposure)); “−−+” in data set [10] (Buffer RNAase later/inhibitor (20 mM, 4 d, with light exposure)); “−−+” in data set [10] (Light exposure Yes (200 mM, 2 d)); “−−+” in [10] (Workflow position After Amp1 (20 mM, 2 d, with light exposure)). Moreover, the Signal/noise ratio result in [10] (Workflow position After Amp2 (20 mM, 2 d, with light exposure)) is “−−+”; in [10] (Workflow position After Amp3 (20 mM, 2 d, with light exposure)) it was “−++”.

`O=C1C=C(Cl)C(=O)C(Cl)=C1` [2,6-Dichloro-1,4-benzoquinone]: in [1], the Autofluorescence quenching effect entry was “Yes”.

`O=C1C=C(Cl)C(=O)C=C1Cl` [2,5-Dichloro-1,4-benzoquinone]: the Autofluorescence quenching effect entry in data set [1] is recorded as “Yes”.
